From US7932284B2, “Indole sulfonamide modulators of progesterone receptors” (Eli Lilly and Company, priority 2006, dated 2011)

Columns and labels:
[1] = molecular target: T1, human PR (progesterone receptor) (Homo sapiens, UniProt P06401); assay: PR competition binding assay (HEK293 cell lysate); conditions: 0.29 nM 3H-methyltrienolone, 293-PR lysate
T1 construct: expressed in transfected cells; host or cells: HEK293
T1 sequence (P06401 1-933): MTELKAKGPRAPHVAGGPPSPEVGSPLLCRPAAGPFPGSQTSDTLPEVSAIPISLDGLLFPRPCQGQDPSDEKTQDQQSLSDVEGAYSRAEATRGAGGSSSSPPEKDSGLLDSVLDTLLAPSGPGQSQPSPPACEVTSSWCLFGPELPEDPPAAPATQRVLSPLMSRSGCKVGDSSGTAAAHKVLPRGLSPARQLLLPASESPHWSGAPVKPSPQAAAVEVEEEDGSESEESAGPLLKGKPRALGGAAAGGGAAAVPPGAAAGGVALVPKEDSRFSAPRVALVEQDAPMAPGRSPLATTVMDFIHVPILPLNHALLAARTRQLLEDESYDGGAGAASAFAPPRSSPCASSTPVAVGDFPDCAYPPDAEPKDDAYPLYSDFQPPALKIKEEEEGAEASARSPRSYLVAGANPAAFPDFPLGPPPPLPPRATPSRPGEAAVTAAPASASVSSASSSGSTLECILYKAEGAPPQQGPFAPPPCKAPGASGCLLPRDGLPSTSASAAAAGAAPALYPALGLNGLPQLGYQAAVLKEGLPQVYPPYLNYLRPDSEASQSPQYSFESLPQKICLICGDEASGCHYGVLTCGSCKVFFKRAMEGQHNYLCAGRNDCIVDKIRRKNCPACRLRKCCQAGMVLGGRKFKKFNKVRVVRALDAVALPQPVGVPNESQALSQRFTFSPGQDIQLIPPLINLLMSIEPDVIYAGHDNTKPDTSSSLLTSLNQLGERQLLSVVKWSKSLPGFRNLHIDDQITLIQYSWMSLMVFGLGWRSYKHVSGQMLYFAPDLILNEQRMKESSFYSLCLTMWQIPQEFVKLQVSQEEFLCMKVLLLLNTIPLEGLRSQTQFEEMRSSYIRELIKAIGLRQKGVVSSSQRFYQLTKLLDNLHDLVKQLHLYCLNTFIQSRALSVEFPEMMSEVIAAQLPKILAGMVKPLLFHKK
Procedure: (§1) Cell lysates from HEK293 cells overexpressing human GR (glucocorticoid receptor), AR (androgen receptor), MR (mineralocorticoid receptor) or PR (progesterone receptor) are used for competition binding assays to determine Ki values for compounds of interest. Briefly, competition binding assays are run in a buffer containing 20 mM HEPES, pH 7.6, 0.2 mM EDTA, 75 mM NaCl, 1.5 mM MgCl2, 20% glycerol, 20 mM sodium molybdate, 0.2 mM DTT, 20 ug/ml aprotinin, and 20 ug/ml leupeptin, using either 0.3 nM ^3H-dexamethasone for GR binding, 0.36 nM ^3H-methyltrienolone for AR binding, 0.25 nM ^3H-aldosterone for MR binding, or 0.29 nM ^3H-methyltrienolone for PR binding, and either 20 ug 293-GR lysate, 22 ug 293-AR lysate, 20 ug 293-MR lysate or 40 ug 293-PR lysate per well. Competing compounds are added at various concentrations in half-log increments. Non-specific binding is determined in the presence of 500 nM dexamethasone for GR binding, 500 nM aldosterone for MR binding, or 500 nM methyltrienolone for AR and PR binding. The binding reaction (140 μl) is incubated overnight at 4° C., then 70 μl of cold charcoal-dextran buffer (containing per 50 ml of assay buffer, 0.75 g of charcoal and 0.25 g of dextran) is added to each reaction. Plates are mixed 8 minutes on an orbital shaker at 4° C. Plates are then centrifuged at 3,000 rpm at 4° C. for 10 minutes. An aliquot of 120 μl of the mixture is transferred to another 96-well plate and 175 μl of Wallac Optiphase “Hisafe 3” scintillation fluid is added to each well. Plates are sealed and shaken vigorously on an orbital shaker. After an incubation of 2 hrs, plates are read in a Wallac Microbeta counter. […] The Kd for ^3H-dexamethasone for GR binding, ^3H-methyltrienolone for AR binding, ^3H-aldosterone for MR binding, or ^3H-methyltrienolone for PR binding, is determined by saturation binding. The IC50 values for compounds are converted to Ki using Cheng-Prusoff equation and the Kd determined by saturation binding assay.
More preferably the compounds of the present invention have PR binding value K; of <10 nM.

[2] = molecular target: T2, human GR (glucocorticoid receptor) (Homo sapiens, UniProt P04150); assay: GR competition binding assay (HEK293 cell lysate); conditions: 0.3 nM 3H-dexamethasone, 293-GR lysate
T2 construct: expressed in transfected cells; host or cells: HEK293
T2 sequence (P04150 1-777): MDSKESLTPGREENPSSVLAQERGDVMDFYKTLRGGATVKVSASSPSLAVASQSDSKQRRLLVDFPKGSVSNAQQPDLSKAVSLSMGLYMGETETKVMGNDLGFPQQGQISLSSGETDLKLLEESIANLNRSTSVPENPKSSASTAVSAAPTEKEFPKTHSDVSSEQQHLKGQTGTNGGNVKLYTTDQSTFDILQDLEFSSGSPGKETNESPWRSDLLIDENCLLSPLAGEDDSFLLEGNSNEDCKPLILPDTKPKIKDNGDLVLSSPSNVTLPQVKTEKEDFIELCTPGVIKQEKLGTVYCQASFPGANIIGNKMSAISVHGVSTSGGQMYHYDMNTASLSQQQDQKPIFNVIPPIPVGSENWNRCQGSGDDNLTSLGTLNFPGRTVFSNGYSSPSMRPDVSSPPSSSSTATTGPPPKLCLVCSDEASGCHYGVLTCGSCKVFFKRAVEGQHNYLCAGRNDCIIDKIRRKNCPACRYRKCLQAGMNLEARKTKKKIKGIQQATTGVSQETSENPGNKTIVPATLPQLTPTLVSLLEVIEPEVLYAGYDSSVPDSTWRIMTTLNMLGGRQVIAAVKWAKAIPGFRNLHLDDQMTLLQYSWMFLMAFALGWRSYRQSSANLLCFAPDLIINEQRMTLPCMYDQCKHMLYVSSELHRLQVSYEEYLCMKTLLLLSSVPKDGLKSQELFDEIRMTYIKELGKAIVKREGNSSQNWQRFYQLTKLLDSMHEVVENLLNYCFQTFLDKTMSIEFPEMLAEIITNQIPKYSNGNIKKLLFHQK
Procedure: as §1

Structure (SMILES)	Ki [1]	Ki [2]
Cn1cc(-c2ccc(C#N)cc2)c2ccc(NS(C)(=O)=O)cc21 [Example 25, N-[3-(4-Cyano-phenyl)-1-methyl-1H-indol-6-yl]-methanesulfonamide]	< 50 nM	> 1000 nM
CC(C)n1cc(-c2ccc(C#N)cc2)c2ccc(NS(C)(=O)=O)cc21 [Example 28, N-[3-(4-Cyano-phenyl)-1-isopropyl-1H-indol-6-yl]-methanesulfonamide]	< 50 nM	> 1000 nM
CC(C)Cn1cc(-c2ccc(C#N)cc2)c2ccc(NS(C)(=O)=O)cc21 [Example 29, N-[3-(4-Cyano-phenyl)-1-isobutyl-1H-indol-6-yl]-methanesulfonamide]	< 50 nM	100 to 500 nM
Cn1cc(-c2ccc([N+](=O)[O-])cc2)c2ccc(NS(C)(=O)=O)cc21 [Example 30, N-[1-Methyl-3-(4-nitro-phenyl)-1H-indol-6-yl]-methanesulfonamide]	< 50 nM	> 1000 nM
Cn1cc(-c2ccc(C#N)cc2)c2ccc(NS(=O)(=O)c3cccs3)cc21 [Example 32, Thiophene-2-sulfonic acid [3-(4-cyano-phenyl)-1-methyl-1H-indol-6-yl]-amide]	< 50 nM	> 1000 nM
CC(C)n1cc(-c2ccc(Cl)cc2)c2ccc(NS(C)(=O)=O)cc21 [Example 36, N-[3-(4-Chloro-phenyl)-1-isopropyl-1H-indol-6-yl]-methanesulfonamide]	< 50 nM	> 1000 nM
CC(C)n1cc(-c2ccc(C#N)c(F)c2)c2ccc(NS(C)(=O)=O)cc21 [Example 38, N-[3-(4-Cyano-3-fluoro-phenyl)-1-isopropyl-1H-indol-6-yl]-methanesulfonamide]	< 50 nM	> 1000 nM
CC(C)n1cc(-c2ccc(C#N)s2)c2ccc(NS(C)(=O)=O)cc21 [Example 43, N-[3-(5-Cyano-thiophen-2-yl)-1-isopropyl-1H-indol-6-yl]-methanesulfonamide]	< 50 nM	> 1000 nM
CS(=O)(=O)Nc1ccc2c(-c3ccc(C#N)cc3)cn(C3CCCC3)c2c1 [Example 63, N-[3-(4-Cyano-phenyl)-1-cyclopentyl-1H-indol-6-yl]-methanesulfonamide]	< 50 nM	> 1000 nM
CS(=O)(=O)Nc1ccc2c(-c3ccc(C#N)cc3)cn(Cc3ccccc3)c2c1 [Example 72, N-[1-Benzyl-3-(4-cyano-phenyl)-1H-indol-6-yl]-methanesulfonamide]	< 50 nM	50 to 100 nM
CCOC(=O)c1ccc(-c2cn(C(C)C)c3cc(NS(C)(=O)=O)ccc23)cc1 [Example 74, 4-(1-Isopropyl-6-methanesulfonylamino-1H-indol-3-yl)-benzoic acid ethyl ester]	< 50 nM	> 1000 nM
CS(=O)(=O)Nc1ccc2c(-c3ccc(C#N)cc3)cn(CC3CCCCC3)c2c1 [Example 77, N-[3-(4-Cyano-phenyl)-1-cyclohexylmethyl-1H-indol-6-yl]-methanesulfonamide]	< 50 nM	100 to 500 nM
CC(C)n1cc(-c2ccc(C#N)n2C)c2ccc(NS(C)(=O)=O)cc21 [Example 78, N-[3-(5-Cyano-1-methyl-1H-pyrrol-2-yl)-1-isopropyl-1H-indol-6-yl]-methanesulfonamide]	< 50 nM	100 to 500 nM
CSc1ccc(-c2cn(C(C)C)c3cc(NS(C)(=O)=O)ccc23)cc1 [Example 83, N-[1-Isopropyl-3-(4-methylsulfanyl-phenyl)-1H-indol-6-yl]-methanesulfonamide]	< 50 nM	> 1000 nM
Cc1ccc(-c2cn(C(C)C)c3cc(NS(C)(=O)=O)ccc23)cc1F [Example 84, N-[3-(3-Fluoro-4-methyl-phenyl)-1-isopropyl-1H-indol-6-yl]-methanesulfonamide]	< 50 nM	> 1000 nM
CC(C)n1cc(-c2ccccc2)c2ccc(NS(C)(=O)=O)cc21 [Example 85, N-(1-Isopropyl-3-phenyl-1H-indol-6-yl)-methanesulfonamide]	< 50 nM	> 1000 nM
